The source of these data is patent US20060057636A1 (priority 2002, published 2006).

The subject of one assay is Balb/C mice. The conditions noted are these: in vivo, sc.
The subject of a further assay is NMRI mice. To be noted: mouse, in vivo.
Another assay has as its system recombinant bovine PrP. The conditions noted are these: in vivo.

On to CYYRPVDQYS [PrP peptide 6], for which, in the assay with Balb/C mice, the “mean end-point titre, mouse no. 1” value is recorded as 13.500; the “mean end-point titre, mouse no. 2” value was 500; the “mean end-point titre, mouse no. 3” value is 13.500; the “mean end-point titre, mouse no. 4” value was 1.500. The “titres in NMRI mice compared with Balb/C” value in the assay with NMRI mice is on record as “the same or even higher titres”.

As to CGSDYEDRY [PrP peptide 5], in the assay on Balb/C mice, the “mean end-point titre, mouse no. 1” value is reported as 121.500; the “mean end-point titre, mouse no. 2” value was 40.500; the “mean end-point titre, mouse no. 3” value is recorded as 40.500; the “mean end-point titre, mouse no. 4” value is 40.500. The “production of high-titered, PrP-reactive antibodies” value in the assay on recombinant bovine PrP is “all groups except the peptide 5 group”.

In the case of CGGRESQAYYQRGAS [PrP peptide 4], in the assay with Balb/C mice, the “mean end-point titre, mouse no. 1” value came to 4.500; the “mean end-point titre, mouse no. 2” value was 13.500; the “mean end-point titre, mouse no. 3” value is on record as 13.500; the “mean end-point titre, mouse no. 4” value is reported as 40.500. Besides, the “titres in NMRI mice compared with Balb/C” value in the assay with NMRI mice is “the same or even higher titres”.

On to CGQGGTHGQWNKP [PrP peptide 1], for which, in the assay with Balb/C mice, the “mean end-point titre, mouse no. 1” value came to 40.500; the “mean end-point titre, mouse no. 2” value came to 40.500; the “mean end-point titre, mouse no. 3” value amounted to 40.500; the “mean end-point titre, mouse no. 4” value was determined as 40.500. Moreover, the “titres in NMRI mice compared with Balb/C” value with NMRI mice is “the same or even higher titres”.

CGQWNKPSKPKTN [PrP peptide 2]: in the assay on Balb/C mice, the “mean end-point titre, mouse no. 1” value is reported as 121.500; the “mean end-point titre, mouse no. 2” value turned out to be 40.500; the “mean end-point titre, mouse no. 3” value was found to be 13.500; the “mean end-point titre, mouse no. 4” value was found to be 13.500.

On to CGGLGGYMLGSAMSRPLIH [PrP peptide 3], for which, in the assay on Balb/C mice, the “mean end-point titre, mouse no. 1” value was determined as 13.5000; the “mean end-point titre, mouse no. 2” value turned out to be 13.500; the “mean end-point titre, mouse no. 3” value is 13.500; the “mean end-point titre, mouse no. 4” value is listed as 40.500.

With CTQYQRESQAYYQRG [PrP peptide 7], in the assay on Balb/C mice, the “mean end-point titre, mouse no. 1” value was determined as 121.500; the “mean end-point titre, mouse no. 2” value is 13.4500; the “mean end-point titre, mouse no. 3” value is recorded as 40.500; the “mean end-point titre, mouse no. 4” value stood at 40.500.
